Measurements taken from US11971402B2, “Methods and reagents for determination and treatment of organotropic metastasis” (CORNELL UNIVERSITY, priority 2015, dated 2024).

What was measured:
[1] = system: 4175-LuT exosome uptake in the lung; assay: Peptide blocking of 4175-LuT exosome uptake in the lung; assay type: in vivo, mice; details: 0.06 μM peptide, 30 minutes at 37° C. prior to exosome injection
Procedure: FIGS. 6A-D show exosomal ITGβ4 expression functionally contributes to 4175-LuT exosome localization and mediates lung metastasis. FIG. 6A, left upper panels, show NIR whole lung imaging of 4175-LuT, 4175β4KD or 4175-LuT-derived exosomes pre-incubated with RGD or HYD-1 peptides. Scale bar, 5 mm. […] (n=4, except 4175 for which n=6). Error bars, ± s.e.m. *P<0.05; **P<0.01 by one-way ANOVA. The left lower panels show fluorescence microscopy. Arrows indicate exosome foci. Scale bar, 50 μm. […] Error bars, ±s.e.m. ***P<0.001 by one-way ANOVA. FIG. 6B, left panel, show NIR whole lung imaging of 1833-BoT (n=5) or 1833-BoT overexpressing (OE) ITGβ4 (n=4) exosomes. Scale bar, 5 mm. […] Bioluminescence imaging of lung metastasis and quantification of luciferase activity (n=6, data representative of 2 independent experiments) is shown. […]
To assess lung, liver and bone exosome distribution, exosomes were injected via the retro-orbital venous sinus, the tail vein or intracardially. […] An average of five random fields was counted per sample at 20× magnification and representative pictures were taken at 40× magnification. […] To measure exosome uptake by specific cell types, labelled exosomes were injected 24 hours prior to tissue collection and tissues were analysed for exosome-positive cells by immunofluorescence. […] Whole lung images were analysed by image J software, by red fluorescence area in arbitrary unit (a.u.).

WI-38 lung fibroblasts = assay: In vitro uptake of 4175-LuT exosomes by WI-38 lung fibroblasts; assay type: cell-based, human; details: 10 μg/ml exosomes pre-incubated with peptide 30 minutes at 37° C., one hour with cells
Procedure: FIGS. 5A-M show ITGs functionally regulate organotropic exosome uptake and exosome-mediated metastasis. […] For western blot source data, see FIG. 9L. […] The WI-38 cell membrane was labelled with PKH67 dye and 4175-LuT exosomes were labelled with PKH26 dye. 10 μg/ml of exosomes were first incubated with PBS or HYD-1 peptide for 30 minutes at 37° C., followed by one hour incubation with WI-38 cells at 37° C. Excess exosomes were washed and cells were imaged (n=4 for two independent experiments); scale bar, 10 μm. […] For western blot source data, see FIG. 9M. […] Arrows indicate lung metastasis. Scale bar, 500 μm. […] For western blot source data, see FIG. 9N. […] An average of five random fields were counted at 20× magnification (data representative of 2 independent experiment n=3). […] Livers were harvested and analyzed for exosome positive cells by flow cytometry 24 hours post injection (n=4, except for the ITGαvβ5 antibody group, which n=5). […] Livers were digested and exosome-positive cells were quantified by flow cytometry (n=3). […] The lower panels show liver weight quantification (n=4 except for the control and peptide group for which n=3 of one experiment). […] Three days after cells were plated at equal density, cell numbers were counted using a hemocytometer (n=3 in 3 independent experiments). […]

KIKMVISWKG (Artificial Amino acid HYD-1 peptide)
4175-LuT exosome uptake in the lung after pre-incubation with peptide [1]: dramatically reduced | uptake of 4175-LuT exosomes by WI-38 lung fibroblasts in vitro (WI-38 lung fibroblasts): prevented
